The values below come from US11926619B2, “Certain pladienolide compounds and methods of use” (EISAI R&D MANAGEMENT CO., LTD., priority 2018, dated 2024).

The structures appear in SMILES notation. Some results are limits rather than exact numbers.

Holding throughout (assay type): cell-based
Assay [1] concerns Panc 05.04 cells (pancreatic cancer cells; Q699H and K700E mutations in SF3B1). Description: Cell viability assay (CellTiter-Glo, 72 hr), Panc 05.04 cells. Conditions: Panc 05.04 cells (mutant SF3B1); for GI50: read-out: Panc 05.04 (mt SF3B1 cells), GI50; for Emax: maximum achievable response in tested dose range, negative value = cellular lethality, read-out: Panc 05.04 (mt SF3B1 cells) Emax (%). The protocol:
(§1) Cells (WiDr and Panc05.04 obtained from ATCC) were seeded in 96-well plates, with 2000 cells/100 μL/well, and incubated overnight. Spent media was removed, and fresh media containing 9 different concentrations of compound (100 μL/well) were added, with DMSO concentration from compound stock solution adjusted to be 0.1%. Each compound treatment was done in duplicate or triplicate at each concentration.
(§2) Another plate with cells seeded was dedicated as a time zero (Tz) plate, to which was added 0.1% DMSO in media (100 μL/well) followed by CellTiter-Glo® reagent (Promega Corporation, Madison, Wisconsin) (50 μL/well) for ATP measurement as a surrogate of cell viability. Average value from measurement of multiple wells of this plate is used as Tz. Compound-treated plates were incubated for 72 hr at 37° C. Then, CellTiter-Glo® reagent (50 μL/well) was added and ATP was measured. Average value from measurement of the duplicate or triplicate compound-treated wells is used as Ti, and seeded plates with medium having 0.1% DMSO without compound is used as control growth (C).
(§3) Percentage growth inhibition/Percentage viability was calculated as:
(§4) [(Ti−Tz)/(C−Tz)]×100 for concentrations for which Ti>/=Tz
(§5) [(Ti−Tz)/Tz]×100 for concentrations for which Ti<Tz.
(§6) *time zero (Tz), control growth (C), and test growth in the presence of compound (Ti) Percentage growth inhibition/Percentage viability are plotted versus compound concentration to determine Emax.
(§7) Emax refers to the maximum achievable response to a compound in a tested dose range, with a negative value indicating cellular lethality. A larger negative Emax value indicates greater cellular lethality for a particular compound.
In general terms: Cellular ATP, detected with luciferase, serves as a proxy for viable cell number.

Assay [2] has as its system WiDr-R cells (colon cancer cells; chemically-induced SF3B1 R1074H mutant). Description: Cell viability assay (CellTiter-Glo, 72 hr), resistant WiDr-R cells (counter-screen). To be noted: WiDr-R cells (SF3B1 R1074H mutation, resistant); read-out: WiDr-R GI50. As for the experimental part:
as §1, §2, §3, §4, §5, §6, §7
The counter-screening of compounds in this viability assay with a “resistant” WiDr-R cell line may indicate whether these compounds have off-target effect(s).

Assay [3] relates to WiDr cells (colon cancer cells; wildtype SF3B1). Description: Cell viability assay (CellTiter-Glo, 72 hr), WiDr cells. To be noted: Homo sapiens; WiDr cells (wildtype SF3B1); read-out: WiDr GI50. The protocol:
as §1, §2, §3, §4, §5, §6
Emax refers to the maximum achievable response to a compound in a tested dose range, with a negative value indicating cellular lethality. A larger negative Emax value indicates greater cellular lethality for a particular compound. […]

The GI50 is the concentration giving 50% growth inhibition.

In the case of `CC(=O)O[C@H]1/C=C/[C@H](C)[C@@H](/C(C)=C/C=C/[C@@H](C)c2ccccn2)OC(=O)CCCCC1`, the GI50 in assay [1], in assay [2] and in assay [3] was over 10000 nM in each case.
As to `C/C(=C\C=C\[C@@H](C)CN(C)C(=O)N1CCCC1)[C@H]1OC(=O)C[C@H](O)CC[C@@](C)(O)[C@@H](OC(=O)N2CCN(C3CCCCCC3)CC2)/C=C/[C@@H]1C`, the Emax in assay [1] was -94.5%. The GI50 in assay [1] is 23.5 nM; in assay [2], over 1000 nM; in assay [3] it was 145 nM.
Consider `C/C(=C\C=C\C(C)c1ccnc(N2CCCC2)n1)[C@H]1OC(=O)CCCCC[C@@H](OC(=O)N2CCN(C3CCCCCC3)CC2)/C=C/[C@@H]1C` (stereo partly drawn), for which the Emax in assay [1] came to 52%. Further, the GI50 in assay [1] is over 10000 nM; in assay [2], 4080 nM; in assay [3], 810 nM.
As to `CC(=O)O[C@H]1/C=C/[C@H](C)[C@@H](/C(C)=C/C=C/[C@@H](C)COC(=O)N2CCOCC2)OC(=O)C[C@H](O)CC[C@@]1(C)O`, the GI50 in assay [1] was 15.4 nM; in assay [2] it was over 10000 nM; in assay [3], 91.3 nM.
Take `C/C(=C\C=C\[C@@H](C)COC(=O)N1CCCC1C(C)O)[C@H]1OC(=O)C[C@H](O)CC[C@@](C)(O)[C@@H](OC(=O)N2CCN(C)CC2)/C=C/[C@@H]1C` (stereo partly drawn): the Emax in assay [1] was -85.4%. For the same compound, the values for the GI50 in assay [1], in assay [2] and in assay [3] were 10.1 nM, over 1000 nM and 14.7 nM, respectively.
On the same counts, the results for `C/C(=C\C=C\C(C)(C)COC(=O)N1CCCC1)[C@H]1OC(=O)C[C@H](OC(=O)N2CCCC2)CC[C@@](C)(O)[C@@H](OC(=O)N2CCN(C3CCCCCC3)CC2)/C=C/[C@@H]1C` are -92.4%, 86.3 nM, 1880 nM and 41.4 nM.
For the compound `C/C(=C\C=C\[C@@H](C)COC(=O)N1CC[C@@H](O)C1)[C@H]1OC(=O)C[C@H](O)CC[C@@](C)(O)[C@@H](OC(=O)N2CCN(C)CC2)/C=C/[C@@H]1C`, the Emax in assay [1] is -94.8%. Also, the GI50 was 88.1 nM in assay [1], over 1000 nM in assay [2] and 89.9 nM in assay [3].
On the same counts, the results for `CC[C@H](O)[C@@H](C)C(=O)OC[C@H](C)/C=C/C=C(\C)[C@H]1OC(=O)C[C@H](O)CC[C@@](C)(O)[C@@H](OC(C)=O)/C=C/[C@@H]1C` are -90.5%, 31.1 nM, over 10000 nM and 42.8 nM.
The like results for `C/C(=C\C=C\[C@@H](C)CNC(=O)C1CCCC1)[C@H]1OC(=O)C[C@H](O)CC[C@@](C)(O)[C@@H](OC(=O)N2CCN(C)CC2)/C=C/[C@@H]1C` were, in that order, -57%, 137 nM, over 1000 nM and 263 nM.
Regarding `C/C(=C\C=C\[C@@H](C)COC(=O)N1CCC[C@H]1C)[C@H]1OC(=O)C[C@H](O)CC[C@@](C)(O)[C@@H](OC(=O)N2CCN(C3CCCCCC3)CC2)/C=C/[C@@H]1C`, the results for the GI50 in assay [1], in assay [2] and in assay [3] were 2.52 nM, 21.8 nM and 1.42 nM, respectively.
In the case of `C/C(=C\C=C\C(C)c1ccnc(N2CC[C@@H](O)C2)n1)[C@H]1OC(=O)CCCCC[C@@H](OC(=O)N2CCN(C3CCCCCC3)CC2)/C=C/[C@@H]1C` (stereo partly drawn), the Emax in assay [1] is -94.8%. The GI50 is 475 nM in assay [1], over 10000 nM in assay [2] and 455 nM in assay [3].
Regarding `CC(=O)O[C@H]1/C=C/[C@H](C)[C@@H](/C(C)=C/C=C/C(C)c2cccc(OCC(C)C)n2)OC(=O)C[C@H](O)CC[C@@]1(C)O` (stereo partly drawn), in assay [1], the Emax was -27.1%. Besides, the GI50 was 842 nM in assay [1], over 10000 nM in assay [2] and 440 nM in assay [3].
For the compound `CCCCN(C)C(=O)OC[C@H](C)/C=C/C=C(\C)[C@H]1OC(=O)C[C@H](O)CC[C@@](C)(O)[C@@H](OC(C)=O)/C=C/[C@@H]1C`, the results for the GI50 in assay [1], in assay [2] and in assay [3] were 198 nM, over 10000 nM and 86.5 nM, respectively.
In the case of `C/C(=C\C=C\[C@@H](C)COC(=O)N1CC[C@@H](F)C1)[C@H]1OC(=O)C[C@H](O)CC[C@@](C)(O)[C@@H](OC(=O)N2CCN(C3CCCCCC3)CC2)/C=C/[C@@H]1C`, the Emax in assay [1] was -92.2%. In addition, the values for the GI50 in assay [1], in assay [2] and in assay [3] were 22.5 nM, over 1000 nM and 7.64 nM, respectively.
With `CC(=O)O[C@H]1/C=C/[C@H](C)[C@@H](/C(C)=C/C=C/C(C)CCc2ccccn2)OC(=O)C[C@H](O)CC[C@@]1(C)O` (stereo partly drawn), in assay [1], the Emax is 0.954%. Moreover, the values for the GI50 in assay [1], in assay [2] and in assay [3] were 972 nM, over 10000 nM and 593 nM, respectively.
For `C/C(=C\C=C\[C@@H](C)COC(=O)n1ccc2ccccc21)[C@H]1OC(=O)C[C@H](O)CC[C@@](C)(O)[C@@H](OC(=O)N2CCN(C)CC2)/C=C/[C@@H]1C`, the Emax in assay [1] is -92.8%. In addition, the values for the GI50 in assay [1], in assay [2] and in assay [3] were 30.5 nM, over 1000 nM and 36.6 nM, respectively.
On the same counts, the results for `C/C(=C\C=C\[C@@H](C)COC(=O)N1CC[C@@H](O)C1)[C@H]1OC(=O)CCCC[C@@](C)(O)[C@@H](OC(=O)N2CCN(C)CC2)/C=C/[C@@H]1C` are -94.6%, 4.44 nM, over 1000 nM and 11.2 nM.
The like results for `C/C(=C\C=C\[C@@H](C)COC(=O)N1CCC2(COC2)C1)[C@H]1OC(=O)C[C@H](O)CC[C@@](C)(O)[C@@H](OC(=O)N2CCN(C3CCCCCC3)CC2)/C=C/[C@@H]1C` were, in that order, -76.4%, 7.98 nM, 603 nM and 6.39 nM.
The like results for `CC(=O)O[C@H]1/C=C/[C@H](C)[C@@H](/C(C)=C/C=C/C(C)c2ccccc2)OC(=O)C[C@H](O)CC[C@@]1(C)O` (stereo partly drawn) were, in that order, 12.3%, 932 nM, over 10000 nM and 382 nM.
`CC(=O)O[C@H]1/C=C/[C@H](C)[C@@H](/C(C)=C/C=C/[C@@H](C)COC(N)=O)OC(=O)C[C@H](O)CC[C@@]1(C)O`: in assay [1], the Emax came to 40.1%. Besides, the GI50 in assay [1] is 2090 nM; in assay [2], over 10000 nM; in assay [3] it was 8130 nM.
With `C/C(=C\C=C\[C@@H](C)COC(=O)N1CCCC1)[C@H]1OC(=O)C[C@H](O)CC[C@H](C)[C@@H](OC(=O)N2CCN(C3CCCCCC3)CC2)/C=C/[C@@H]1C`, in assay [1], the Emax was -90.9%. Besides, the GI50 in assay [1] is 10.8 nM; in assay [2], over 1000 nM; in assay [3], 8.39 nM.
As to `C/C(=C\C=C\CCOC(=O)N1CCCC1)[C@H]1OC(=O)C[C@H](O)CC[C@@](C)(O)[C@@H](OC(=O)N2CCN(C)CC2)/C=C/[C@@H]1C`, the GI50 in assay [1] was 58.4 nM; in assay [2], over 5500 nM; in assay [3], 63.6 nM.
Regarding `COC(=O)OC[C@H](C)/C=C/C=C(\C)[C@H]1OC(=O)C[C@H](O)CC[C@@](C)(O)[C@@H](OC(=O)N2CCN(C)CC2)/C=C/[C@@H]1C`, the Emax in assay [1] was -95.9%. Further, the GI50 in assay [1] is 5.11 nM; in assay [2] it was over 1000 nM; in assay [3] it was 14.7 nM.
As to `C/C(=C\C=C\[C@@H](C)COC(=O)N1CCC(=O)C1)[C@H]1OC(=O)C[C@H](O)CC[C@@](C)(O)[C@@H](OC(=O)N2CCN(C3CCCCCC3)CC2)/C=C/[C@@H]1C`, the Emax in assay [1] is -93.6%. Further, the GI50 in assay [1] is 2.85 nM; in assay [2], 449 nM; in assay [3], 4.77 nM.
For `C/C(=C\C=C\[C@@H](C)COC(=O)N1Cc2ccccc2C1)[C@H]1OC(=O)C[C@H](O)CC[C@@](C)(O)[C@@H](OC(=O)N2CCN(C)CC2)/C=C/[C@@H]1C`, the Emax in assay [1] is -56%. In addition, the GI50 in assay [1] is 35.4 nM; in assay [2] it was over 1000 nM; in assay [3] it was 33.8 nM.
On the same counts, the results for `C/C(=C\C=C\[C@@H](C)COC(=O)N1CC[C@@H](C)C1)[C@H]1OC(=O)C[C@H](O)CC[C@@](C)(O)[C@@H](OC(=O)N2CCN(C3CCCCCC3)CC2)/C=C/[C@@H]1C` are -86.6%, 1.2 nM, over 1000 nM and 3.93 nM.
`C/C(=C\C=C\[C@@H](C)COC(=O)N1CCCC1)[C@H]1OC(=O)C[C@H](OC(=O)N2CCCC2)CC[C@@](C)(O)[C@@H](OC(=O)N2CCN(C3CCCCCC3)CC2)/C=C/[C@@H]1C`: the figures for the GI50 in assay [1], in assay [2] and in assay [3] were 80.1 nM, over 1000 nM and 77.3 nM, respectively.
